Numbered stars: 1 amine (or outer) side, 2 acyl side, 3 side chain; on linkers, the order of the positions; unused ones are H or OH. Bridge positions count the residues as written; N and C are the ends. Square brackets hold non-standard residues; d marks the D form. Peptide text beside a SMILES is read from it. * marks the point of attachment. C20 diacid = O=C(O)CCCCCCCCCCCCCCCCCCC(=O)*; γGlu = O=C(O)[C@H](CCC(=O)[*:2])N[*:1]; NMeI = CC[C@H](C)[C@H](NC)C(=O)O; Sar = CNCC(=O)O

Series [1] addresses T1, human calcitonin receptor (hCTR2) (Homo sapiens, UniProt P30988).
T1 construct: expressed in transfected cells
T1 sequence (P30988 25-474): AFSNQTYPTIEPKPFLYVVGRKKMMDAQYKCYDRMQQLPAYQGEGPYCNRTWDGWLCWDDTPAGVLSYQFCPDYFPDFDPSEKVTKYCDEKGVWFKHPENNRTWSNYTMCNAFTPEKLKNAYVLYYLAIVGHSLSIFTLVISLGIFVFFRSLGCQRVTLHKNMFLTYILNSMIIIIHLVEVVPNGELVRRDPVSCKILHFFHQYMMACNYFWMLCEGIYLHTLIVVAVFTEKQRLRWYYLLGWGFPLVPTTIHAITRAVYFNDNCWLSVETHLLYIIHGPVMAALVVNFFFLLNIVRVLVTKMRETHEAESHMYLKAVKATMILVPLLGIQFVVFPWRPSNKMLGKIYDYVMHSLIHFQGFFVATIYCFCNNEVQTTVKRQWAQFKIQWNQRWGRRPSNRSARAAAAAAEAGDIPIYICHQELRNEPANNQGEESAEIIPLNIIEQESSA
Kind of series: hCTR2 assay: induction of cAMP (AlphaScreen cAMP Assay kit) in COS7 cells expressing hCTR2. It is filed as cell-based. Put shortly:
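cAMP induction was measured by AlphaScreen in COS7 cells stably expressing hCTR2 without RAMPs, after 15 min at 37° C with increasing peptide concentrations, 100 µM IBMX and 0.1% casein (Tyrode, pH 7.4). A 4-parameter logistic fit gave EC50 and % efficacy versus pramlintide.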
(Alpha assays give light when donor and acceptor beads are brought close together.)

The nature of series [2]: Solubility assessment (turbidity absorbance at 325 nm). The class given is physicochemical. Particulars: stock 2 mg/ml diluted 1:1, ambient temperature (typically 25°C), n=1; for Solubility, Acetate buffer pH 4: 100 mM acetate buffer pH 4.0; for Solubility, Acetate buffer pH 5: 100 mM acetate buffer pH 5.0; for Solubility, Histidine buffer pH 6: 100 mM histidine buffer pH 6.0; for Solubility, Histidine buffer pH 7: 100 mM histidine buffer pH 7.0; for Solubility, Phosphate buffer pH 6: 100 mM phosphate buffer pH 6.0; for Solubility, Phosphate buffer pH 7: 100 mM phosphate buffer pH 7.0; for Solubility, Phosphate buffer pH 7.5: 100 mM phosphate buffer pH7.5. Put shortly: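 Read-out: turbidity as absorbance at 325 nm (280 nm also read), single samples, ambient temperature of typically 25°C. Samples were a 1:1 mix of 2 mg/ml stock (water, pH 2.5) with 100 mM acetate, histidine or phosphate buffers spanning pH 4.0–7.5. Cut-off: A325 ≤ 0.02 indicates ≥ 1 mg/ml.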

A short description of series [3]: Assessment of chemical stability: normalized purity by RP-HPLC after incubation at 40 °C. It is filed as physicochemical. Particulars: normalized purity (T=0 set to 100), 0.2 mg/ml; for Chem. stability; 7 days, 40°C pH 4: pH 4, 7 days; for Chem. stability; 7 days, 40°C pH 7.5: pH 7.5, 7 days; for Chem. stability; 7 days, 40°C pH 9: pH 9, 7 days. As to the method:
Samples of each test peptide were dissolved in MilliQ™ water, and the pH of the solution was adjusted to pH 4, pH 7.5 or pH 9, respectively, using either HCI or NaOH. The final peptide concentration was 0.2 mg/ml. Samples were placed in glass vials and incubated at 40 °C. The samples were analyzed by RP-HPLC on a C8 column with gradient elution using an ammonium formate/water eluent system, or on a C18 column with gradient elution using a trifluoroacetic acid/water eluent system. The area-percentage (area-%) of the main peak after incubation time T = t (relative to time T = 0) was determined by UV spectroscopy at 220 nm.
The purity was first determined as follows: Purity(area−%) = (area of main peak/total area of all peaks) × 100. [formula]
The purity was then normalized between time points by setting purity at time 0 (T=0) to 100 for each pH value for a given peptide, as follows: Normalised area−%at time t(T = t) = [area−%(T = t)/area−%(T = 0)] × 100. [formula]
The normalized purity values in Table 2 were determined after 7 days of incubation. Table 2. EC50, chemical stability and fibrillation data for compounds of the invention

Series [4] deals with Zucker diabetic fatty (ZDF) rats. Kind of series: Glycemic control in Zucker diabetic fatty rats. Particulars: 40 nmol/kg sc twice daily (bid), P < 0.001. It is filed as in vivo, male Zucker diabetic fatty (ZDF) rats. The procedure:
(§1) Whole-blood glucose levels were determined on tail-vein blood samples by the Biosen (EKF Diagnostic, Germany) enzyme-based electrode method. Blood samples were analyzed for glycated hemoglobin (HbA1c) using a Cobas c111 analyzer (Roche Diagnostics, Mannheim, Germany). Plasma insulin levels were measured using a Meso Scale Discovery (MSD) system (Rockville, MD, USA). Liver fat content was determined by magnetic resonance (MR) scanning using an Echo systems MR scanner. Fat depots were measured by weighing of excised fat.
84 male Zucker diabetic fatty (ZDF) rats (9-10 weeks of age) were used in this study. The animals were housed in groups of n = 2. Stratification of the animals was based on non-fasting blood glucose (primary), changes in non-fasting blood glucose measured from the arrival of the animals until one week before the initiation of the study (secondary) and body weight (tertiary). The animals were further divided into two "teams" with a pair-fed group (group 2) allocated to team 2. […] The amount of food eaten by the animals treated with Compound 82 (30 nmol/kg, team 1) each day was determined, and the same amount was given to a vehicle-treated pair-fed group of animals the following day. […]
Statistical analyses were performed using GraphPad™ Prism version 5. The measured parameters were compared using one- way ANOVA followed by Dunnett's multiple comparison test. […]

Series [5] relates to male Zucker diabetic fatty (ZDF) rats. The series is described as follows: Efficacy testing: glycemic control in Zucker diabetic fatty rats. The class given is in vivo. As to the method: as §1
84 male Zucker diabetic fatty (ZDF) rats (9-10 weeks of age) were used in this study. The animals were housed in groups of n = 2. Stratification of the animals was based on non-fasting blood glucose (primary), changes in non-fasting blood glucose measured from the arrival of the animals until one week before the initiation of the study (secondary) and body weight (tertiary). The animals were further divided into two "teams" with a pair-fed group (group 2) allocated to team 2. Animals from group 2 were pair-fed in order to compare between the contribution made by reduced food intake and by drug-induced effects on glycemic control. The amount of food eaten by the animals treated with Compound 82 (30 nmol/kg, team 1) each day was determined, and the same amount was given to a vehicle-treated pair-fed group of animals the following day.
Rats were treated for 4 weeks with Compound 82 (3, 30 and 100 nmol/kg, sc, every (ev.) 5th day), Compound 18 (30 nmol/kg sc, every 5th day), or the GLP-1 analogue liraglutide (40 nmol/kg sc, twice daily (bid)).
The effects of the compounds on glycemic control were investigated by measurement of non-fasting and fasting blood glucose levels and HbA1c levels.
Statistical analyses were performed using GraphPad™ Prism version 5. The measured parameters were compared using one- way ANOVA followed by Dunnett's multiple comparison test. Comparison between the pair-fed vehicle-treated group and the Compound 82 (30 nmol/kg) group was done using Student's two-tailed and unpaired t-test. Differences were considered statistically significant at p < 0.05.

In general, EC50 refers to the concentration that produces a half-maximal response. Regarding `CC[C@H](C)[C@@H](C(=O)N[C@@H](CC(C)C)C(=O)N[C@@H](CO)C(=O)N[C@@H](CO)C(=O)N[C@H](C(=O)N[C@@H](CC(N)=O)C(=O)N[C@H](C(=O)NCC(=O)N[C@@H](CO)C(=O)N[C@@H](CC(N)=O)C(=O)N[C@H](C(=O)N1CCC[C@H]1C(N)=O)[C@@H](C)O)C(C)C)[C@@H](C)O)N(C)C(=O)[C@H](C)NC(=O)CN(C)C(=O)[C@H](Cc1ccccc1)NC(=O)[C@H](CC(N)=O)NC(=O)[C@H](CC(N)=O)NC(=O)[C@H](CO)NC(=O)[C@@H](CO)NC(=O)[C@H](Cc1c[nH]cn1)NC(=O)[C@H](Cc1c[nH]cn1)NC(=O)[C@H](CC(C)C)NC(=O)[C@H](Cc1ccccc1)NC(=O)[C@H](CCC(=O)O)NC(=O)[C@H](C)NC(=O)[C@H](CC(C)C)NC(=O)[C@H](CCCNC(=N)N)NC(=O)[C@H](CCC(N)=O)NC(=O)[C@@H](NC(=O)[C@H](C)NC(=O)[C@@H]1CSSC[C@H](NC(=O)[C@H](CCCNC(=N)N)NC(=O)CC[C@H](NC(=O)CCCCCCCCCCCCCCCCCCC(=O)O)C(=O)O)C(=O)N[C@@H](CC(N)=O)C(=O)N[C@@H]([C@@H](C)O)C(=O)N[C@@H](C)C(=O)N[C@@H]([C@@H](C)O)C(=O)N1)[C@@H](C)O` [Compound 29, [19CD]-isoGlu-RC()NTATC()ATQRLAEFLHH-DSer-SNNF-Gly(Me)-A-Ile(Me)-LSSTNVGSNTP-NH2] ({C20 diacid-γGlu}-RCNTATCATQRLAEFLHH[dS]SNNF[Sar]A[NMeI]LSSTNVGSNTP-NH2; disulfide 2-7), the EC50 in series [1] turned out to be 0.42 nM. In addition, in series [2], the “Solubility, Acetate buffer pH 4” value is on record as “SS (SS indicates solubility ≥ 1mg/ml)”; the “Solubility, Acetate buffer pH 5” value is reported as “SS (SS indicates solubility ≥ 1mg/ml)”; the “Solubility, Histidine buffer pH 6” value is reported as “SS (SS indicates solubility ≥ 1mg/ml)”; the “Solubility, Histidine buffer pH 7” value was “SS (SS indicates solubility ≥ 1mg/ml)”. In series [2], the “Solubility, Phosphate buffer pH 6” value is “SS (SS indicates solubility ≥ 1mg/ml)”; the “Solubility, Phosphate buffer pH 7” value is “SS (SS indicates solubility ≥ 1mg/ml)”; the “Solubility, Phosphate buffer pH 7.5” value is recorded as “SS (SS indicates solubility ≥ 1mg/ml)”. For the same molecule, in series [3], the “Chem. stability; 7 days, 40°C pH 4” value was found to be 100 area-%; the “Chem. stability; 7 days, 40°C pH 7.5” value amounted to 69 area-%; the “Chem. stability; 7 days, 40°C pH 9” value is given as 53 area-%.

With `CC[C@H](C)[C@@H](C(=O)N[C@@H](CC(C)C)C(=O)N[C@@H](CO)C(=O)N[C@@H](CO)C(=O)N[C@H](C(=O)N[C@@H](CC(N)=O)C(=O)N[C@H](C(=O)NCC(=O)N[C@@H](CO)C(=O)N[C@@H](CC(N)=O)C(=O)N[C@H](C(=O)N1CCC[C@H]1C(N)=O)[C@@H](C)O)C(C)C)[C@@H](C)O)N(C)C(=O)[C@H](C)NC(=O)CN(C)C(=O)[C@H](Cc1ccccc1)NC(=O)[C@H](CC(N)=O)NC(=O)[C@H](CC(N)=O)NC(=O)[C@H](CO)NC(=O)[C@H](CO)NC(=O)[C@H](CCCNC(=N)N)NC(=O)[C@H](Cc1c[nH]cn1)NC(=O)[C@H](CC(C)C)NC(=O)[C@H](Cc1ccccc1)NC(=O)[C@H](CCC(=O)O)NC(=O)[C@H](C)NC(=O)[C@H](CC(C)C)NC(=O)[C@H](CCCNC(=N)N)NC(=O)[C@H](CCC(N)=O)NC(=O)[C@@H](NC(=O)[C@H](C)NC(=O)[C@@H]1CSSC[C@H](NC(=O)[C@H](Cc2c[nH]c3ccccc23)NC(=O)CC[C@H](NC(=O)CCCCCCCCCCCCCCCCCCC(=O)O)C(=O)O)C(=O)N[C@@H](CC(N)=O)C(=O)N[C@@H]([C@@H](C)O)C(=O)N[C@@H](C)C(=O)N[C@@H]([C@@H](C)O)C(=O)N1)[C@@H](C)O` [Compound 125, [19CD]-isoGlu-WC()NTATC()ATQRLAEFLHRSSNNF-Gly(Me)-A-Ile(Me)-LSSTNVGSNTP-NH2] ({C20 diacid-γGlu}-WCNTATCATQRLAEFLHRSSNNF[Sar]A[NMeI]LSSTNVGSNTP-NH2; disulfide 2-7), the EC50 in series [1] is 0.061 nM. Besides, in series [2], the “Solubility, Acetate buffer pH 4” value is listed as “SS (SS indicates solubility ≥ 1mg/ml)”; the “Solubility, Acetate buffer pH 5” value was “SS (SS indicates solubility ≥ 1mg/ml)”; the “Solubility, Histidine buffer pH 6” value is on record as “SS (SS indicates solubility ≥ 1mg/ml)”; the “Solubility, Histidine buffer pH 7” value is “SS (SS indicates solubility ≥ 1mg/ml)”. Also, in series [2], the “Solubility, Phosphate buffer pH 6” value is “II (II indicates solubility ≤ 1 mg/ml)”; the “Solubility, Phosphate buffer pH 7” value is “SS (SS indicates solubility ≥ 1mg/ml)”; the “Solubility, Phosphate buffer pH 7.5” value was “SS (SS indicates solubility ≥ 1mg/ml)”. For the same molecule, in series [3], the “Chem. stability; 7 days, 40°C pH 4” value worked out at 77 area-%; the “Chem. stability; 7 days, 40°C pH 7.5” value worked out at 70 area-%; the “Chem. stability; 7 days, 40°C pH 9” value came out at 68 area-%.

Turning to liraglutide, in series [4], the “blood glucose levels (non-fasting and fasting)” value is recorded as “significant blood glucose lowering effect”.

With liraglutide [reference compound], the “terminal HbA1c levels” value in series [5] (40 nmol/kg sc twice daily (bid), 4 weeks, vehicle 8.7 ± 0.2) is reported as 5.8 ± 0.2%. The “blood glucose lowering effect” value in series [5] (40 nmol/kg sc twice daily, P < 0.001) was “significant”.

The values above are taken from patent publication EP3046573B1, “AMYLIN ANALOGUES” (Zealand Pharma A/S, priority 2013, dated 2015).
